What was measured:
[1] = test system: MCF-7 breast cancer cell line; test: MTT antiproliferative assay, MCF-7; type: cell-based, human; details: for IC50: Homo sapiens, MCF7, MTT, 24 h treatment, mean ± S.D., n = 3
Experimental: (§1) The antiproliferative activity and cytotoxicity of ART–isatin hybrids 4a–k against MCF-7 (CL-0149, purchased from Procell), MDA-MB-231 (CL-0150A, purchased from Procell), and MDA-MB-231/ADR (AC337895, purchased from CASMART) breast cancer cell lines, as well as MCF-10A (CL-0525, purchased from Procell), were assessed by the 3-(4,5-dimethylthiazol-2-yl)-2,5-diphenyltetrazolium bromide (MTT) assay. ART, DHA, and Adriamycin (ADR) were used as positive controls. The selectivity index (SI: IC50(MCF-10A)/IC50(MCF-7)) and resistance index (RI: IC50(MDA-MB-231/ADR)/IC50(MDA-MB-231)) are presented in Table 3.
(§2) MCF-7, MDA-MB-231 and MDA-MB-231/ADR breast cancer cells (2×10^3) were plated in each well of a 96-well plate and were allowed to adhere and spread for 24 h. Cells were treated with a range of different concentrations of ART-isatin hybrids 4a-k (1, 5, 10, 20, 50, 100 µM) and reference drugs artemisinin, dihydroartemisinin, and adriamycin (1, 5, 10, 20, 50, 100 µM) and were cultured for 24 h at 37 °C. 3-(4,5-dimethyl-2-thiazolyl)-2,5-diphenyltetrazolium bromide (MTT) solution (10 µL) was added to each well, and the cultures were incubated for an additional 4 h. A further 100 µL of […] was added and incubation continued overnight. The absorbance was read at 540 nm in EnSpire, multimode reader and IC50 concentration was calculated and indicated as means SD of three in-dependent experiments. The percentage relative cell viability was determined according to the following formula: Percentage cell viability = A at 570 nm of treated samples/A at 570 nm of untreated samples × 100.
(§3) The statistical analysis was performed using Excel © and IC50 values were estimated using GraphpadPrism5 software (Hearne Scientific Software). The experiments were performed in duplicate and the statistical significance was calculated using the student’s t-test. A p-value of less than 0.05 was used to estimate the significance of the observations. A Z-factor was calculated for each 96-well plate and assays having Z-factor above 0.05 were included in the statistical analysis.

[2] = test system: MDA-MB-231 breast cancer cell line; test: MTT antiproliferative assay, MDA-MB-231; type: cell-based; details: Homo sapiens, 24 h treatment, mean ± S.D., n = 3
Experimental: as §1, §2, §3

[3] = test system: MDA-MB-231/ADR (Adriamycin-resistant MDA-MB-231 cell line); test: MTT antiproliferative assay, MDA-MB-231/ADR; type: cell-based; details: Homo sapiens, 24 h treatment, mean ± S.D., n = 3
Experimental: as §1, §2, §3

[4] = MTT cytotoxicity assay, MCF-10A; type: cell-based; details: human, MCF-10A normal breast cells, 72 h exposure
Experimental: as §1
The cytotoxicity (CC50) of ART-isatin hybrids 4a-k and reference drugs artemisinin, dihydroartemisinin, and adriamycin were examined by the MTT assay in MCF-10A cells. The compounds were dissolved in DMSO with different concentrations. The MCF-10A cells were maintained in culture medium at 37 °C under 5% CO2 atmosphere. Cells were seeded in 96-well plates (1×10^4 cell per well) and allowed to recover for 24 h. After 72 h of exposure, cells were harvested, and cell viability was assessed by MTT assay.
as §3

[5] = test system: MCF-7, MDA-MB-231, and MDA-MB-231/ADR breast cancer cell lines; test: MTT antiproliferative assay, span over the three breast cancer cell lines; type: cell-based; details: Homo sapiens; span over MCF-7, MDA-MB-231, MDA-MB-231/ADR; read-out: IC50 range against the three tested breast cancer cell lines
Experimental: as §1
MCF-7, MDA-MB-231 and MDA-MB-231/ADR breast cancer cells (2×10^3) were plated in each well of a 96-well plate and were allowed to adhere and spread for 24 h. […] The absorbance was read at 540 nm in EnSpire, multimode reader and IC50 concentration was calculated and indicated as means SD of three in-dependent experiments. The percentage relative cell viability was determined according to the following formula: Percentage cell viability = A at 570 nm of treated samples/A at 570 nm of untreated samples × 100.
The statistical analysis was performed using Excel © and IC50 values were estimated using GraphpadPrism5 software (Hearne Scientific Software). The experiments were performed in duplicate and the statistical significance was calculated using the student’s t-test. […]

| SMILES | IC50 [1] [µM] | IC50 [2] [µM] | IC50 [3] [µM] | IC50 [5] [µM] | SI, selectivity index, IC50(MCF-10A)/IC50(MCF-7) [1] | IC50 at 72 h [4] [µM] |
| --- | --- | --- | --- | --- | --- | --- |
| COc1cccc2c1C(=O)c1c(O)c3c(c(O)c1C2=O)C[C@@](O)(C(=O)CO)C[C@@H]3O[C@H]1C[C@H](N)[C@H](O)[C@H](C)O1 [ADR, Adriamycin, reference compound] | 18.9 ± 1.2 | 4.46 ± 0.1 | > 100 | – | 3.6 | 68.8 |
| C[C@@H]1CC[C@H]2[C@@H](C)C(=O)O[C@@H]3O[C@@]4(C)CC[C@@H]1[C@]32OO4 [ART, artemisinin] | 87.6 ± 6.6 | 72.4 ± 5.3 | > 100 | – | >1.1 | > 100 |
| C[C@H]1[C@@H](O)O[C@@H]2O[C@@]3(C)CC[C@H]4[C@H](C)CC[C@@H]1[C@@]24OO3 [DHA, dihydroartemisinin, reference compound] | 73.2 ± 5.9 | 69.6 ± 4.7 | 82.8 ± 6.8 | 69.6 to 89.8 | >1.3 | > 100 |
| C[C@@H]1CC[C@H]2[C@@H](C)C(OCCN3C(=O)C(=O)c4cc(F)ccc43)O[C@@H]3O[C@@]4(C)CC[C@@H]1[C@]32OO4 (stereo partly drawn) [Hybrid 4b, 5-fluoro-1-(2-(((3R,5aS,6R,8aS,9R,12R,12aR)-3,6,9-trimethyldecahydro-12H-3,12-epoxy[1,2]dioxepino[4,3-i]isochromen-10-yl)oxy)ethyl)indoline-2,3-dione] | 26.7 ± 2.4 | 18.6 ± 1.5 | 21.4 ± 3.1 | – | >3.7 | > 100 |
| C[C@@H]1CC[C@H]2[C@@H](C)C(OCCN3C(=O)C(=NOCc4ccccc4)c4cc(F)ccc43)O[C@@H]3O[C@@]4(C)CC[C@@H]1[C@]32OO4 (stereo partly drawn) [Hybrid 4j, 3-((benzyloxy)imino)-5-fluoro-1-(2-(((3R,5aS,6R,8aS,9R,12R,12aR)-3,6,9-trimethyldecahydro-12H-3,12-epoxy[1,2]dioxepino[4,3-i]isochromen-10-yl)oxy)ethyl)indolin-2-one] | > 100 | > 100 | > 100 | – | – | > 100 |
| COc1ccc2c(c1)/C(=N\OCc1ccccc1)C(=O)N2CCOC1O[C@@H]2O[C@@]3(C)CC[C@H]4[C@H](C)CC[C@@H]([C@H]1C)[C@@]24OO3 (stereo partly drawn) [Hybrid 4k, (E)-3-((benzyloxy)imino)-5-methoxy-1-(2-(((3R,5aS,6R,8aS,9R,12R,12aR)-3,6,9-trimethyldecahydro-12H-3,12-epoxy[1,2]dioxepino[4,3-i]isochromen-10-yl)oxy)ethyl)indolin-2-one] | > 100 | > 100 | > 100 | – | – | > 100 |

More lines, main results first:

| IC50 [1] [µM] | IC50 [2] [µM] | IC50 [3] [µM] | IC50 [5] [µM] | SMILES | SI, selectivity index, IC50(MCF-10A)/IC50(MCF-7) [1] | IC50 at 72 h [4] [µM] |
| --- | --- | --- | --- | --- | --- | --- |
| 12.6 ± 2.1 | 3.83 ± 0.1 | 2.49 ± 0.1 | 2.49 to 12.6 | C[C@@H]1CC[C@H]2[C@@H](C)C(OCCN3C(=O)C(=O)c4ccccc43)O[C@@H]3O[C@@]4(C)CC[C@@H]1[C@]32OO4 (stereo partly drawn) [Hybrid 4a, 1-(2-(((3R,5aS,6R,8aS,9R,12R,12aR)-3,6,9-trimethyldecahydro-12H-3,12-epoxy[1,2]dioxepino[4,3-i]isochromen-10-yl)oxy)ethyl)indoline-2,3-dione] | >7.9 | > 100 |
| 33.8 ± 3.2 | 27 ± 2.2 | 25.1 ± 1.9 | – | COc1ccc2c(c1)C(=O)C(=O)N2CCOC1O[C@@H]2O[C@@]3(C)CC[C@H]4[C@H](C)CC[C@@H]([C@H]1C)[C@@]24OO3 (stereo partly drawn) [Hybrid 4c, 5-methoxy-1-(2-(((3R,5aS,6R,8aS,9R,12R,12aR)-3,6,9-trimethyldecahydro-12H-3,12-epoxy[1,2]dioxepino[4,3-i]isochromen-10-yl)oxy)ethyl)indoline-2,3-dione] | >2.9 | > 100 |
| 28.5 ± 2.3 | 16.2 ± 1.8 | 19.7 ± 1.2 | – | CON=C1C(=O)N(CCOC2O[C@@H]3O[C@@]4(C)CC[C@H]5[C@H](C)CC[C@@H]([C@H]2C)[C@@]35OO4)c2ccccc21 (stereo partly drawn) [Hybrid 4d, 3-(methoxyimino)-1-(2-(((3R,5aS,6R,8aS,9R,12R,12aR)-3,6,9-trimethyldecahydro-12H-3,12-epoxy[1,2]dioxepino[4,3-i]isochromen-10-yl)oxy)ethyl)indolin-2-one] | >3.5 | > 100 |
| 73.3 ± 5.6 | 49.6 ± 3.8 | 64.7 ± 4.9 | – | CO/N=C1/C(=O)N(CCOC2O[C@@H]3O[C@@]4(C)CC[C@H]5[C@H](C)CC[C@@H]([C@H]2C)[C@@]35OO4)c2ccc(F)cc21 (stereo partly drawn) [Hybrid 4e, (E)-5-fluoro-3-(methoxyimino)-1-(2-(((3R,5aS,6R,8aS,9R,12R,12aR)-3,6,9-trimethyldecahydro-12H-3,12-epoxy[1,2]dioxepino[4,3-i]isochromen-10-yl)oxy)ethyl)indolin-2-one] | >1.3 | > 100 |
| 37.9 ± 3.3 | 20.4 ± 1.7 | 33.8 ± 3 | – | CON=C1C(=O)N(CCOC2O[C@@H]3O[C@@]4(C)CC[C@H]5[C@H](C)CC[C@@H]([C@H]2C)[C@@]35OO4)c2ccc(OC)cc21 (stereo partly drawn) [Hybrid 4f, 5-methoxy-3-(methoxyimino)-1-(2-(((3R,5aS,6R,8aS,9R,12R,12aR)-3,6,9-trimethyldecahydro-12H-3,12-epoxy[1,2]dioxepino[4,3-i]isochromen-10-yl)oxy)ethyl)indolin-2-one] | >2.6 | > 100 |
| 48.2 ± 3.7 | 37.6 ± 2.4 | 28.4 ± 2.1 | – | CCON=C1C(=O)N(CCOC2O[C@@H]3O[C@@]4(C)CC[C@H]5[C@H](C)CC[C@@H]([C@H]2C)[C@@]35OO4)c2ccccc21 (stereo partly drawn) [Hybrid 4g, 3-(ethoxyimino)-1-(2-(((3R,5aS,6R,8aS,9R,12R,12aR)-3,6,9-trimethyldecahydro-12H-3,12-epoxy[1,2]dioxepino[4,3-i]isochromen-10-yl)oxy)ethyl)indolin-2-one] | >2.0 | > 100 |
| 68.3 ± 5.2 | 46.5 ± 3.9 | 59.9 ± 4.4 | – | CCON=C1C(=O)N(CCOC2O[C@@H]3O[C@@]4(C)CC[C@H]5[C@H](C)CC[C@@H]([C@H]2C)[C@@]35OO4)c2ccc(F)cc21 (stereo partly drawn) [Hybrid 4h, 3-(ethoxyimino)-5-fluoro-1-(2-(((3R,5aS,6R,8aS,9R,12R,12aR)-3,6,9-trimethyldecahydro-12H-3,12-epoxy[1,2]dioxepino[4,3-i]isochromen-10-yl)oxy)ethyl)indolin-2-one] | >1.4 | > 100 |
| 70.8 ± 5.9 | 50.1 ± 4.2 | 52.2 ± 3.6 | – | CCON=C1C(=O)N(CCOC2O[C@@H]3O[C@@]4(C)CC[C@H]5[C@H](C)CC[C@@H]([C@H]2C)[C@@]35OO4)c2ccc(OC)cc21 (stereo partly drawn) [Hybrid 4i, 3-(ethoxyimino)-5-methoxy-1-(2-(((3R,5aS,6R,8aS,9R,12R,12aR)-3,6,9-trimethyldecahydro-12H-3,12-epoxy[1,2]dioxepino[4,3-i]isochromen-10-yl)oxy)ethyl)indolin-2-one] | >1.4 | > 100 |
